Tested on: Mouse collagen-induced arthritis
Test: Therapeutic mouse collagen-induced arthritis (mCIA)
Format: in vivo
Description: Mouse Collagen-induced arthritis is a commonly used chronic, preclinical model of rheumatoid arthritis in which joint swelling and bone destruction occur following immunization with type II collagen. Reduction of disease incidence and severity has been shown previously to be predictive of disease-modification and signs and symptoms mitigation, respectively, in a clinical setting.
In the therapeutic mCIA model, induction of disease incidence and severity was synchronized via LPS stimulation. Male DBA/J mice were immunized with 100 ug of bovine type II collagen (bCII) on day 0. All mice received an intraperitoneal injection of 20 μg of LPS on day 28 and disease was allowed to develop through day 34. At day 34, all mice had disease (incidence=100%) with an average severity score of seven. Dosing of compounds was initiated in the therapeutic mode on day 34 and continued through day 49. Different treatments were compared by measuring the decrease in incidence (i.e., resolution of disease) and the decrease in severity of paw swelling over time.
ED50 and ED80 values are obtained for the various parameters using four-parameter logistic fits of data. For each experiment/dose group, outliers are detected by calculating the number of standard deviations each mouse's value was from the mean of their group and then dividing by the standard deviation of the group. The means and standard deviations used in this calculation omitted the value being examined so that, if it were an outlier, it would have no influence. If the value being examined is more than 2.5 standard deviations from the mean, it was not used in the rest of the calculations.
Percent inhibition values are then calculated for each animal using the means of the vehicle and 10 mpk prednisone control groups. The individual mouse percent inhibition values are then fit to a four-parameter logistic model using the area under curve mean for each group. Since all four parameters are estimated and the lower plateau is not fixed at 0% and the upper plateau was not fixed at 100%, the ED50 and ED80 values are calculated by using an inverse calibration formula for a response equal to 50% or 80%. The designation “nd” means not determined.

**Q.** With `Cc1ncccc1NC(=O)c1ccc2c(c1)C(=O)C[C@@H]1C[C@@](O)(c3ccccc3)[C@](C)(O)C[C@@]21Cc1ccccc1` [Example 1, (4bR,6R,7R,8aS)-4b-benzyl-6,7-dihydroxy-6-methyl-N-(2-methylpyridin-3-yl)-10-oxo-7-phenyl-4b,5,6,7,8,8a,9,10-octahydrophenanthrene-2-carboxamide] as the compound, how does the ED50 (816 h, dosing day 34 to 49, read-out: Therapeutic mCIA (ED50 dose)) read?
**A.** Its ED50 is 0.3 mg/kg.

**Q.** What about the “Therapeutic mCIA (ED80 dose)” value (dosing day 34 to 49) of the same compound?
**A.** Its value is 1.61.

From patent US8552035B2, “Phenanthrenone compounds, compositions and methods” (Pfizer Inc., priority 2008, dated 2013)
